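Briefly, cells in 96-well plates were exposed to five compound concentrations for 48 h, and endpoints were estimated by linear interpolation. TGI marks complete inhibition of growth.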
Tests used:
Experiment in all cases: NCI-60 cell line screen, 48 h
HOP-92 NSCLC = system: HOP-92 NSCLC
UO-31 renal = system: UO-31 renal
SNB-78 CNS = system: SNB-78 CNS
HT29 colon = system: HT29 colon
U251 CNS = system: U251 CNS
MOLT-4 leukemia = system: MOLT-4 leukemia
IGROV1 ovarian = system: IGROV1 ovarian
SW-620 colon = system: SW-620 colon
SK-MEL-2 melanoma = system: SK-MEL-2 melanoma
LXFL 529 NSCLC = system: LXFL 529 NSCLC
UACC-62 melanoma = system: UACC-62 melanoma
NCI-H460 lung = system: NCI-H460 lung
786-0 renal = system: 786-0 renal
MALME-3M melanoma = system: MALME-3M melanoma
SNB-19 CNS = system: SNB-19 CNS
SK-MEL-5 melanoma = system: SK-MEL-5 melanoma
ACHN renal = system: ACHN renal
OVCAR-5 ovarian = system: OVCAR-5 ovarian
COLO 205 colon = system: COLO 205 colon
HCC-2998 colon = system: HCC-2998 colon
HOP-62 NSCLC = system: HOP-62 NSCLC
NCI-H226 lung = system: NCI-H226 lung
RPMI-8226 leukemia = system: RPMI-8226 leukemia
A549 NSCLC = system: A549 NSCLC
SNB-75 CNS = system: SNB-75 CNS
M19-MEL melanoma = system: M19-MEL melanoma
KM20L2 colon = system: KM20L2 colon
OVCAR-4 ovarian = system: OVCAR-4 ovarian
SK-OV-3 ovarian = system: SK-OV-3 ovarian
DLD-1 colon = system: DLD-1 colon
SK-MEL-28 melanoma = system: SK-MEL-28 melanoma
HCT-116 colon = system: HCT-116 colon
M14 melanoma = system: M14 melanoma
UACC-257 melanoma = system: UACC-257 melanoma
CAKI-1 renal = system: CAKI-1 renal
HOP-18 NSCLC = system: HOP-18 NSCLC
NCI-H23 lung = system: NCI-H23 lung
DMS 114 small cell lung = system: DMS 114 small cell lung
SR leukemia = system: SR leukemia
SF-295 CNS = system: SF-295 CNS
RXF 393 renal = system: RXF 393 renal
CCRF-CEM leukemia = system: CCRF-CEM leukemia
DMS 273 small cell lung = system: DMS 273 small cell lung
SF-539 CNS = system: SF-539 CNS
TK-10 renal = system: TK-10 renal
A498 renal = system: A498 renal
HCT-15 colon = system: HCT-15 colon
KM12 colon = system: KM12 colon
K-562 leukemia = system: K-562 leukemia
LOX IMVI melanoma = system: LOX IMVI melanoma
OVCAR-8 ovarian = system: OVCAR-8 ovarian
HL-60(TB) leukemia = system: HL-60(TB) leukemia
SN12C renal = system: SN12C renal
XF 498 CNS = system: XF 498 CNS
SF-268 CNS = system: SF-268 CNS
EKVX NSCLC = system: EKVX NSCLC
OVCAR-3 ovarian = system: OVCAR-3 ovarian
NCI-H522 lung = system: NCI-H522 lung

Measured: TGI

CC(NC1CCCC[C@H]1O)c1ccccc1 (stereo partly specified)
not listed: NCI-H23 lung | DMS 114 small cell lung | SR leukemia | SF-295 CNS | RXF 393 renal | CCRF-CEM leukemia | DMS 273 small cell lung | SF-539 CNS | TK-10 renal | A498 renal | HCT-15 colon | KM12 colon | K-562 leukemia | LOX IMVI melanoma | OVCAR-8 ovarian | HL-60(TB) leukemia | SN12C renal | XF 498 CNS | SF-268 CNS | EKVX NSCLC | OVCAR-3 ovarian | NCI-H522 lung
> 100 µM: all other assays above

Clc1ccc(OCc2nnc3n2N=C(c2ccc(Br)cc2)CS3)cc1
54 µM: DMS 114 small cell lung
41 µM: HOP-92 NSCLC
35.6 µM: TK-10 renal
75.1 µM: SNB-19 CNS
82 µM: NCI-H460 lung
61.8 µM: RXF 393 renal
24.5 µM: SF-539 CNS
19.6 µM: UO-31 renal
21.4 µM: XF 498 CNS
66.9 µM: SK-MEL-2 melanoma
70.3 µM: LXFL 529 NSCLC
81.1 µM: SNB-78 CNS
34.6 µM: SK-OV-3 ovarian
25.7 µM: A498 renal
46 µM: LOX IMVI melanoma
83.3 µM: UACC-257 melanoma
37.7 µM: SF-295 CNS
not listed: IGROV1 ovarian | SK-MEL-5 melanoma | COLO 205 colon | HOP-62 NSCLC | SNB-75 CNS | KM20L2 colon | OVCAR-4 ovarian | DLD-1 colon | M14 melanoma | CAKI-1 renal | HOP-18 NSCLC | SF-268 CNS | EKVX NSCLC | OVCAR-3 ovarian | NCI-H522 lung
> 100 µM: all other assays above

CC(=O)Nc1ccc(/C=C2\N=C(c3ccccc3)OC2=O)cc1
> 31.6 µM: IGROV1 ovarian
> 60.1 µM: UACC-62 melanoma
not listed: SNB-78 CNS | HT29 colon | M19-MEL melanoma | CAKI-1 renal | SR leukemia | DMS 273 small cell lung | SF-539 CNS | A498 renal | OVCAR-8 ovarian | XF 498 CNS | OVCAR-3 ovarian | NCI-H522 lung
> 100 µM: all other assays above

COc1cc(-c2ccc(NC(=O)SCCC(=O)O)cc2OC)ccc1NC(=O)SCCC(=O)O
not listed: HOP-92 NSCLC | IGROV1 ovarian | UACC-62 melanoma | HCC-2998 colon | SK-OV-3 ovarian | DLD-1 colon | HOP-18 NSCLC
> 100 µM: all other assays above

— PubChem BioAssay (NCI)
